Legend:
[1] = target: T1, H1 (Mus musculus, UniProt P70174); assay: Brain Penetration Test (ex vivo [3H]mepyramin binding in mouse brain); conditions: ip; for ED50: peritoneal administration to mouse, brain taken 1 hour after, [3H]mepyramin 0.5 nM, read-out: IC50 (50% inhibitory dose), ex vivo; for selectivity ratio at 1 h: mouse, brain, IC50 (mg/kg)/H1 binding inhibition dissociation constant (nM), read-out: BP index
T1 construct: from tissue; host or cells: mouse brain homogenate, ex vivo after intraperitoneal dosing
Protocol: Described specifically, to a mouse of 20 g to 23 g, a test compound of a given concentration was peritoneally administered. Upon elapsed time of one hour after the administration, the mouse was sacrificed. The brain tissue was taken out, and was then homogenated with a 30 mM Na,K phosphate buffer (pH 7.5) to give 40 ml/g wet weight. […] Subsequent to incubation at 37° C. for 50 minutes, an ice-cold phosphate buffer was added to terminate the reaction. Each of the resulting mixtures was immediately filtered through Wattman CF/C filter. The filter was washed twice with 20 ml aliquots of the ice-cold buffer. The radioactivity of the residue was measured by a liquid scintillation counter. […] A BP index as an index of brain penetration was calculated in accordance with the following formula:
BP index=IC50 (mg/kg)/H1 binding inhibition dissociation constant (nM)

[2] = target: T2, isolated guinea pig ileum (Cavia porcellus, UniProt Q2NNR5); assay: Anti-LTD4 action on isolated guinea pig ileum (LTD4 contraction); format: cell-based; conditions: 10^-5 M test compound; contraction caused by 10^-8 M LTD4; read-out: Anti-LTD4 action (inhibition rate)
T2 construct: An isolated guinea pig ileum was cut into about 2 cm lengths; from tissue; host or cells: guinea pig ileum
T2 sequence (Q2NNR5 1-340): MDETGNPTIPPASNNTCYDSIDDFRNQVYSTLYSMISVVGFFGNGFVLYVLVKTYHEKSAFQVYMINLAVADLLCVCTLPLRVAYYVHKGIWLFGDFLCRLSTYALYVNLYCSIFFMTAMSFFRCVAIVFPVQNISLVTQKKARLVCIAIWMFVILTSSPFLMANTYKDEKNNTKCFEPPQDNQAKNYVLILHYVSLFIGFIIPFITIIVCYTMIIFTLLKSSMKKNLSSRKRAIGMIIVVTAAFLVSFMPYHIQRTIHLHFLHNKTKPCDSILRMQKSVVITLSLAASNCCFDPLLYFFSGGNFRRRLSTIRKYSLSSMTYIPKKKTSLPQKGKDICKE
Protocol: Antihistaminic Action and Anti-LTD4 Action (In vitro Tests)
An isolated guinea pig ileum was cut into about 2 cm lengths. Each ileum piece was suspended in a 20-ml container filled with the Tyrode's buffer. An isotonic contractive response by histamine or LTD4 was recorded on a recorder. The Tyrode's buffer was controlled at 30° C., through which a mixed gas (95%O2 -5%CO2) was bubbled.

[3] = target: T3, H1 receptor (Cavia porcellus, UniProt P31389); assay: H1 Receptor Binding Inhibition Test ([3H]mepyramin, guinea pig cerebromembranous protein); conditions: read-out: H1 receptor dissociation constant (KD)
T3 construct: guinea pig cerebromembranous protein and a test compound; from tissue; host or cells: guinea pig brain membranes
Protocol: H1 Receptor Binding Inhibition Test
An ice-cold phosphate buffer was added to terminate the reaction, followed by immediate filtration through a Wattman CF/C filter. The filter was washed twice with 20 ml aliquots of the ice-cold buffer. The radio-activity of the residue was measured by a liquid scintillation counter. From a measurement value obtained without the addition of the test compound and measurements values obtained upon addition of the test compound at various concentrations, the dose-response of the inhibitory action of the test compound was measured and the 50% inhibitory concentration (IC50) was determined. Using the Cheng-Prusoff formula, a dissociation constant (KD) was calculated from the 50% inhibitory concentration (IC50).
In a binding assay, 10^4 M R(-)dimethindene was used for the measurement of a nonspecific binding.

[4] = target: T4, LTD4 receptor (Cavia porcellus, UniProt Q2NNR5); assay: LTD4 Receptor Binding Inhibition Test ([3H]LTD4, guinea pig pulmomembranous protein); conditions: read-out: LTD4 receptor dissociation constant (KD)
T4 construct: guinea pig pulm-omembranous protein and a test compound; from tissue; host or cells: guinea pig lung membranes
T4 sequence (Q2NNR5 1-340): T2 sequence (Q2NNR5 1-340)
Protocol: LTD4 Receptor Binding Inhibition Test
An ice-cold tris hydrochloride/sodium chloride buffer (10 mM/100 mM, pH 7.5) was added to terminate the reaction, followed by immediate filtration through a Wattman CF/C filter. The filter was washed twice with 20 ml aliquots of the ice-cold buffer. The radioactivity of the residue was measured by a liquid scintillation counter.
In a binding assay, […] LTD4 was used for the measurement of a nonspecific binding.

T3 sequence (P31389 whole entry): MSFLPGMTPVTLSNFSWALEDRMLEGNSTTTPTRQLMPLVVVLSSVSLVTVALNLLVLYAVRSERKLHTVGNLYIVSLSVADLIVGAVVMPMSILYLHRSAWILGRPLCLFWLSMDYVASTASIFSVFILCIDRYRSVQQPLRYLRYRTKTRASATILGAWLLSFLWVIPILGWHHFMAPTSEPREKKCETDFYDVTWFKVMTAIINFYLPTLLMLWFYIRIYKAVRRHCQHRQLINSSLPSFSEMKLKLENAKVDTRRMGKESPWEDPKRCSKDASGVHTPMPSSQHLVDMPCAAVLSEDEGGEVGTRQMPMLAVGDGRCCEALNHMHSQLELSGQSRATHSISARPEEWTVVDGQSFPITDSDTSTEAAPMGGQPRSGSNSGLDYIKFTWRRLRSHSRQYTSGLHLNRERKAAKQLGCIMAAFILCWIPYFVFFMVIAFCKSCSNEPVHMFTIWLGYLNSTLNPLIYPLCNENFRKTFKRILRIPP
T1 sequence (P70174 whole entry): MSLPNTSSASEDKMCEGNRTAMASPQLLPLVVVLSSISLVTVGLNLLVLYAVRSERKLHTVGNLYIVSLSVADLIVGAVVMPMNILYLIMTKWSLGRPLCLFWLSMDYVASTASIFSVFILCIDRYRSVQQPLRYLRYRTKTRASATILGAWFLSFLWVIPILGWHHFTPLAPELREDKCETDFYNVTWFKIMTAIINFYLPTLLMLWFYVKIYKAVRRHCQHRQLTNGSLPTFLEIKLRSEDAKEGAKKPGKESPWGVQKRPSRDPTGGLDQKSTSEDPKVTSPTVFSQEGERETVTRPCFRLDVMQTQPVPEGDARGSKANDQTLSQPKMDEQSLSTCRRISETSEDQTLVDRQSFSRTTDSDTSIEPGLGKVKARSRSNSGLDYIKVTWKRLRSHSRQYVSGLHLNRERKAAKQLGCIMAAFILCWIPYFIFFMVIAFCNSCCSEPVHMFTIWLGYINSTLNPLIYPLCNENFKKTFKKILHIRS

Compound	ED50 [1]	selectivity ratio at 1 h [1]	inhibition at 10 µM [2]	Ki [3]	Ki [4]
Cc1ccc(OCCCN2CCN(Cc3ccc4ccccc4n3)CC2)c2c1NC(=O)CC2 [Example 91, 8-methyl-5-{3-[4-(2-quinolylmethyl)piperazinyl]propoxy}-1,2,3,4-tetrahydroquinolin-2-one]	10 mg/kg	35.7	–	–	–
O=C1CSc2cc(OCCCN3CCN(Cc4ccc5ccccc5n4)CC3)ccc2N1 [Example 90, 7-{3-[4-(2-quinolylmethyl)piperazinyl]propoxy}-3,4-dihydro-2H-1,4-benzothiazin-3-one]	8.5 mg/kg	1.7	16%	5.01 nM	9410 nM
Cc1ccc(OCCN2CCCN(Cc3ccc4ccccc4n3)CC2)c2c1NC(=O)CC2 [Example 61, 8-Methyl-5-{2-[4-(2-quinolylmethyl)-1-homopiperazinyl]ethoxy}-1,2,3,4-tetrahydroquinolin-2-one]	–	–	19%	4.69 nM	1610 nM
Cc1ccc(OCCCN2CCN(Cc3ccc4ccccc4n3)CC2)c2c1NC(=O)C2(C)C [Example 92]	16.5 mg/kg	0.29	42%	55.7 nM	4230 nM
CC1(C)C(=O)Nc2cccc(OCCCN3CCCN(Cc4ccc5ccccc5n4)CC3)c21 [Example 85, 3,3-Dimethyl-4-{3-[4-(2-quinolylmethyl)-1-homopiperazinyl]propoxy}-2,3-dihydro-1H-indol-2-one]	–	–	21%	18.3 nM	35700 nM
O=c1ccc2ccc(OCCN3CCCN(Cc4ccc5ccccc5n4)CC3)cc2[nH]1 [Example 79, 7-{2-[4-(2-Quinolylmethyl)-1-homopiperazinyl]ethoxy}-1,2-dihydroquinolin-2-one]	–	–	19%	75.9 nM	8610 nM
